# Laboratory results from patent publication US4824937A, “Synthetic natriuretic peptides” (501 Advanced Peptide Development, Ltd., priority 1986, dated 1989).
# Ends that are not written are not given here.
# How the values were obtained:
# [1] = test system: male normotensive Sprague-Dawley rats; experiment: Diuretic activity: urine flow after i.v. bolus in anesthetized rats; type: in vivo, rat; settings: 3.5 mcg/kg i.v. bolus; for URINE FLOW: 8 rats
# Procedure: (§1) The diuretic activities of the synthetic natriuretic peptides (SNP) of this invention and their effects upon electrolyte excretion are determined in male normotensive Sprague-Dawley rats. The animals are anesthetized with sodium pentobarbital (55 mg/kg), the femoral vein is cannulated for injection of the test compound and for infusion of Ringer's solution, the bladder is cannulated for urine collection, and the trachea is cannulated to ensure a clean airway. The animals are infused with Ringer's solution at a rate of 1.2 ml/20 min. for 20 minutes, the infusion rate is then decreased to 1.2 ml/hour for a further 20 minutes, and urine collections are started at the end of that period. Three 10-minute collections are taken as control samples, and at the end of the third 10-minute period the SNP to be tested is injected as a bolus over 30 seconds into the femoral vein. Infusion of Ringer's solution at 1.2 ml/hour is continued for the duration of the experiment, and urine samples are collected every 10 minutes over 4 hours, their respective volumes are determined, and the concentrations of Na^+, Cl^-, and K^+ are measured using a NovaBiomedical electrolyte analyzer. The above determinations are done on samples pooled from all animals in a given experiment, and urine flow is calculated as ml/min./kg body weight while electrolyte concentrations are calculated as mmol/l/gm kidney tissue.
# (§2) Details of the assay method are described above, and it remains only to be stated that 8 male normotensive Sprague-Dawley rats are used in each group. […] Urine flow then decreases sharply and is at control volumes at about 40 minutes where it remains until about 140 minutes.
# [2] = test system: male normotensive Sprague-Dawley rats; experiment: Effects upon electrolyte excretion (Na+, K+, Cl- in urine) after i.v. bolus in anesthetized rats; type: in vivo, rat; settings: 3.5 mcg/kg i.v. bolus; for ELECTROLYTE EXCRETION Cl^- / ELECTROLYTE EXCRETION K^+ / ELECTROLYTE EXCRETION Na^+: pooled urine of 8 rats
# Procedure: as §1, §2
substance,measurement,setting,value
"BG-3009: known ANP composed of 28 amino acid residues, identical with the ANP described by Flynn et al. (SLRRSSCFGGRIDRIGAQSGLGCNSFRY; not fully specified; ends and bridges not checked; UniProt P01161 123-150, looked up)","effect on urine flow, late phase (in words)",[1]; from 150 minutes (BG-3009: after 130 minutes) to the end of the experiment,hardly noticeable and may not be significant
same,"effect on urine flow, early phase (in words)",[1]; from injection up to 130-140 minutes,shows similar effects up to 130 minutes
same,URINE FLOW,[1]; 10 min after injection,333.7 ml./min./kg. body wt × 10^-3
same,URINE FLOW,[1]; 20 min after injection,55.7 ml./min./kg. body wt × 10^-3
same,URINE FLOW,[1]; 30 min after injection,23.3 ml./min./kg. body wt × 10^-3
same,URINE FLOW,[1]; 40 min after injection,16.4 ml./min./kg. body wt × 10^-3
same,URINE FLOW,[1]; 50 min after injection,16.9 ml./min./kg. body wt × 10^-3
same,URINE FLOW,[1]; 60 min after injection,16.7 ml./min./kg. body wt × 10^-3
same,URINE FLOW,[1]; 70 min after injection,16.4 ml./min./kg. body wt × 10^-3
same,URINE FLOW,[1]; 80 min after injection,16.4 ml./min./kg. body wt × 10^-3
same,URINE FLOW,[1]; 90 min after injection,15.2 ml./min./kg. body wt × 10^-3
same,URINE FLOW,[1]; 100 min after injection,16.0 ml./min./kg. body wt × 10^-3
same,URINE FLOW,[1]; 110 min after injection,17.2 ml./min./kg. body wt × 10^-3
same,URINE FLOW,[1]; 120 min after injection,17.6 ml./min./kg. body wt × 10^-3
same,URINE FLOW,[1]; 130 min after injection,23.4 ml./min./kg. body wt × 10^-3
same,URINE FLOW,[1]; 140 min after injection,22.6 ml./min./kg. body wt × 10^-3
same,URINE FLOW,[1]; 150 min after injection,21.4 ml./min./kg. body wt × 10^-3
same,URINE FLOW,[1]; 160 min after injection,19.7 ml./min./kg. body wt × 10^-3
same,URINE FLOW,[1]; 170 min after injection,19.9 ml./min./kg. body wt × 10^-3
same,URINE FLOW,[1]; 180 min after injection,20.5 ml./min./kg. body wt × 10^-3
same,URINE FLOW,[1]; 190 min after injection,22.3 ml./min./kg. body wt × 10^-3
same,URINE FLOW,[1]; 200 min after injection,22.3 ml./min./kg. body wt × 10^-3
same,URINE FLOW,[1]; 210 min after injection,20.7 ml./min./kg. body wt × 10^-3
same,URINE FLOW,[1]; 220 min after injection,22.7 ml./min./kg. body wt × 10^-3
same,URINE FLOW,[1]; 230 min after injection,28.6 ml./min./kg. body wt × 10^-3
same,URINE FLOW,[1]; 240 min after injection,25.9 ml./min./kg. body wt × 10^-3
same,"effect on Na^+ excretion, early phase (in words)",[2],sharp increases in Na^+ excretion for the first 30-40 minutes
same,effect on K^+ and Cl^- excretion (in words),[2]; early phase,short-lasting decreases in K^+ and Cl^- excretion returning to control values after about 60 minutes
same,"effect on Na^+ and Cl^- excretion, late phase (in words)",[2]; from about 140-160 minutes to 240 minutes,slight increase in Na^+ and Cl^- excretion
same,ELECTROLYTE EXCRETION Cl^-,[2]; 10 min after injection,10.1 mmol/l./gm. kidney tissue
same,ELECTROLYTE EXCRETION K^+,[2]; 10 min after injection,1.5 mmol/l./gm. kidney tissue
same,ELECTROLYTE EXCRETION Na^+,[2]; 10 min after injection,10.0 mmol/l./gm. kidney tissue
same,ELECTROLYTE EXCRETION Cl^-,[2]; 20 min after injection,12.8 mmol/l./gm. kidney tissue
same,ELECTROLYTE EXCRETION K^+,[2]; 20 min after injection,2.4 mmol/l./gm. kidney tissue
same,ELECTROLYTE EXCRETION Na^+,[2]; 20 min after injection,13.2 mmol/l./gm. kidney tissue
same,ELECTROLYTE EXCRETION Cl^-,[2]; 30 min after injection,12.7 mmol/l./gm. kidney tissue
same,ELECTROLYTE EXCRETION K^+,[2]; 30 min after injection,4.9 mmol/l./gm. kidney tissue
same,ELECTROLYTE EXCRETION Na^+,[2]; 30 min after injection,12.4 mmol/l./gm. kidney tissue
same,ELECTROLYTE EXCRETION Cl^-,[2]; 40 min after injection,13.0 mmol/l./gm. kidney tissue
same,ELECTROLYTE EXCRETION K^+,[2]; 40 min after injection,5.6 mmol/l./gm. kidney tissue
same,ELECTROLYTE EXCRETION Na^+,[2]; 40 min after injection,11.1 mmol/l./gm. kidney tissue
same,ELECTROLYTE EXCRETION Cl^-,[2]; 50 min after injection,14.0 mmol/l./gm. kidney tissue
same,ELECTROLYTE EXCRETION K^+,[2]; 50 min after injection,6.6 mmol/l./gm. kidney tissue
same,ELECTROLYTE EXCRETION Na^+,[2]; 50 min after injection,8.8 mmol/l./gm. kidney tissue
same,ELECTROLYTE EXCRETION Cl^-,[2]; 60 min after injection,13.5 mmol/l./gm. kidney tissue
same,ELECTROLYTE EXCRETION K^+,[2]; 60 min after injection,7.4 mmol/l./gm. kidney tissue
same,ELECTROLYTE EXCRETION Na^+,[2]; 60 min after injection,7.8 mmol/l./gm. kidney tissue
same,ELECTROLYTE EXCRETION Cl^-,[2]; 70 min after injection,13.7 mmol/l./gm. kidney tissue
same,ELECTROLYTE EXCRETION K^+,[2]; 70 min after injection,7.7 mmol/l./gm. kidney tissue
same,ELECTROLYTE EXCRETION Na^+,[2]; 70 min after injection,7.1 mmol/l./gm. kidney tissue
same,ELECTROLYTE EXCRETION Cl^-,[2]; 80 min after injection,13.0 mmol/l./gm. kidney tissue
same,ELECTROLYTE EXCRETION K^+,[2]; 80 min after injection,7.9 mmol/l./gm. kidney tissue
same,ELECTROLYTE EXCRETION Na^+,[2]; 80 min after injection,6.5 mmol/l./gm. kidney tissue
same,ELECTROLYTE EXCRETION Cl^-,[2]; 90 min after injection,13.3 mmol/l./gm. kidney tissue
same,ELECTROLYTE EXCRETION K^+,[2]; 90 min after injection,8.0 mmol/l./gm. kidney tissue
same,ELECTROLYTE EXCRETION Na^+,[2]; 90 min after injection,6.4 mmol/l./gm. kidney tissue
same,ELECTROLYTE EXCRETION Cl^-,[2]; 100 min after injection,13.3 mmol/l./gm. kidney tissue
same,ELECTROLYTE EXCRETION K^+,[2]; 100 min after injection,8.2 mmol/l./gm. kidney tissue
same,ELECTROLYTE EXCRETION Na^+,[2]; 100 min after injection,6.3 mmol/l./gm. kidney tissue
same,ELECTROLYTE EXCRETION Cl^-,[2]; 110 min after injection,13.1 mmol/l./gm. kidney tissue
same,ELECTROLYTE EXCRETION K^+,[2]; 110 min after injection,8.2 mmol/l./gm. kidney tissue
same,ELECTROLYTE EXCRETION Na^+,[2]; 110 min after injection,6.5 mmol/l./gm. kidney tissue
same,ELECTROLYTE EXCRETION Cl^-,[2]; 120 min after injection,13.7 mmol/l./gm. kidney tissue
same,ELECTROLYTE EXCRETION K^+,[2]; 120 min after injection,8.5 mmol/l./gm. kidney tissue
same,ELECTROLYTE EXCRETION Na^+,[2]; 120 min after injection,6.7 mmol/l./gm. kidney tissue
same,ELECTROLYTE EXCRETION Cl^-,[2]; 130 min after injection,13.6 mmol/l./gm. kidney tissue
same,ELECTROLYTE EXCRETION K^+,[2]; 130 min after injection,8.6 mmol/l./gm. kidney tissue
same,ELECTROLYTE EXCRETION Na^+,[2]; 130 min after injection,6.6 mmol/l./gm. kidney tissue
same,ELECTROLYTE EXCRETION Cl^-,[2]; 140 min after injection,14.8 mmol/l./gm. kidney tissue
same,ELECTROLYTE EXCRETION K^+,[2]; 140 min after injection,9.0 mmol/l./gm. kidney tissue
same,ELECTROLYTE EXCRETION Na^+,[2]; 140 min after injection,7.0 mmol/l./gm. kidney tissue
same,ELECTROLYTE EXCRETION Cl^-,[2]; 150 min after injection,15.2 mmol/l./gm. kidney tissue
same,ELECTROLYTE EXCRETION K^+,[2]; 150 min after injection,9.4 mmol/l./gm. kidney tissue
same,ELECTROLYTE EXCRETION Na^+,[2]; 150 min after injection,7.3 mmol/l./gm. kidney tissue
same,ELECTROLYTE EXCRETION Cl^-,[2]; 160 min after injection,14.2 mmol/l./gm. kidney tissue
same,ELECTROLYTE EXCRETION K^+,[2]; 160 min after injection,9.4 mmol/l./gm. kidney tissue
same,ELECTROLYTE EXCRETION Na^+,[2]; 160 min after injection,7.4 mmol/l./gm. kidney tissue
same,ELECTROLYTE EXCRETION Cl^-,[2]; 170 min after injection,14.4 mmol/l./gm. kidney tissue
same,ELECTROLYTE EXCRETION K^+,[2]; 170 min after injection,9.2 mmol/l./gm. kidney tissue
same,ELECTROLYTE EXCRETION Na^+,[2]; 170 min after injection,7.7 mmol/l./gm. kidney tissue
same,ELECTROLYTE EXCRETION Cl^-,[2]; 180 min after injection,14.8 mmol/l./gm. kidney tissue
same,ELECTROLYTE EXCRETION K^+,[2]; 180 min after injection,9.1 mmol/l./gm. kidney tissue
same,ELECTROLYTE EXCRETION Na^+,[2]; 180 min after injection,8.3 mmol/l./gm. kidney tissue
same,ELECTROLYTE EXCRETION Cl^-,[2]; 190 min after injection,14.4 mmol/l./gm. kidney tissue
same,ELECTROLYTE EXCRETION K^+,[2]; 190 min after injection,8.7 mmol/l./gm. kidney tissue
same,ELECTROLYTE EXCRETION Na^+,[2]; 190 min after injection,8.7 mmol/l./gm. kidney tissue
same,ELECTROLYTE EXCRETION Cl^-,[2]; 200 min after injection,14.7 mmol/l./gm. kidney tissue
same,ELECTROLYTE EXCRETION K^+,[2]; 200 min after injection,8.5 mmol/l./gm. kidney tissue
same,ELECTROLYTE EXCRETION Na^+,[2]; 200 min after injection,9.2 mmol/l./gm. kidney tissue
same,ELECTROLYTE EXCRETION Cl^-,[2]; 210 min after injection,15.0 mmol/l./gm. kidney tissue
same,ELECTROLYTE EXCRETION K^+,[2]; 210 min after injection,8.4 mmol/l./gm. kidney tissue
same,ELECTROLYTE EXCRETION Na^+,[2]; 210 min after injection,9.6 mmol/l./gm. kidney tissue
same,ELECTROLYTE EXCRETION Cl^-,[2]; 220 min after injection,15.3 mmol/l./gm. kidney tissue
same,ELECTROLYTE EXCRETION K^+,[2]; 220 min after injection,8.3 mmol/l./gm. kidney tissue
same,ELECTROLYTE EXCRETION Na^+,[2]; 220 min after injection,9.4 mmol/l./gm. kidney tissue
same,ELECTROLYTE EXCRETION Cl^-,[2]; 230 min after injection,14.8 mmol/l./gm. kidney tissue
same,ELECTROLYTE EXCRETION K^+,[2]; 230 min after injection,8.3 mmol/l./gm. kidney tissue
same,ELECTROLYTE EXCRETION Na^+,[2]; 230 min after injection,9.2 mmol/l./gm. kidney tissue
same,ELECTROLYTE EXCRETION Cl^-,[2]; 240 min after injection,15.7 mmol/l./gm. kidney tissue
same,ELECTROLYTE EXCRETION K^+,[2]; 240 min after injection,8.5 mmol/l./gm. kidney tissue
same,ELECTROLYTE EXCRETION Na^+,[2]; 240 min after injection,9.2 mmol/l./gm. kidney tissue
